# According to patent US20210251232A1, “USE OF FUNGICIDAL ACTIVE COMPOUND I DERIVATIVE AND MIXTURES THEREOF IN SEED APPLICATION AND TREATMENT METHODS” (BASF SE, priority 2018, published 2021):
# Where two headings read alike, the source gives them in different places.
# Tests used:
# Type in all cases: cell-based
# Conditions in all cases: alone, 7 days after inoculation
# Pyricularia oryzae = test system: Pyricularia oryzae
# [1] = test system: Qol resistant iso-late of Pyrenophora teres; assay: Microtiter test, activity against Pyrenophora teres
# Botrytis cinerea = assay: Microtiterplate test, activity against the grey mold Botrytis cinerea
# Phytophthora infestans = test system: Phytophthora infestans
# Leptosphaeria nodorum = assay: Microtiter test, activity against wheat leaf spots caused by Leptosphaeria nodorum
molecule,measurement,setting,value
CN/C(=N\[N+](=O)[O-])NCc1cnc(Cl)s1 [Clothianidin],Observed efficacy,Pyricularia oryzae; 63 ppm,0
"N#Cc1ccc(Oc2ccc(C(F)(F)C(O)(Cn3ncnc3S)c3ccc(F)cc3F)nc2)cc1 (stereo not shown) [Compound I, 4-[[6-[2-(2,4-difluorophenyl)-1,1-difluoro-2-hydroxy-3-(5-sulfanyl-1,2,4-triazol-1-yl)propyl]-3-pyridyl]oxy]benzonitrile]",Observed efficacy,"Pyricularia oryzae; 1 ppm, 405 nm",0
same,Observed efficacy,"[1]; 4 ppm, 405 nm",0
same,Observed efficacy,"Botrytis cinerea; 4 ppm, 405 nm",24
same,Observed efficacy,"Phytophthora infestans; 4 ppm, 405 nm, 0 = growth as untreated control, 100 = no growth",24
same,Observed efficacy,Leptosphaeria nodorum; 0.25 ppm,0
same,Observed efficacy,Leptosphaeria nodorum; 1 ppm,20
same,Observed efficacy,"Leptosphaeria nodorum; 4 ppm, 405 nm",37
Cc1cc(C(F)(F)F)nn1CC(=O)N1CCC(c2nc(C3=NOC(c4c(F)cccc4F)C3)cs2)CC1 (stereo not shown) [Oxathiapirolin],Observed efficacy,Pyricularia oryzae; 16 ppm,0
CC(c1ccc(C(F)(F)F)nc1)S(C)(=O)=NC#N (stereo not shown) [Sulfoxaflor],Observed efficacy,Pyricularia oryzae; 63 ppm,0
O=[N+]([O-])NC1=NCCN1Cc1ccc(Cl)nc1 [Imidacloprid],Observed efficacy,Pyricularia oryzae; 63 ppm,0
N#Cc1c[nH]cc1-c1cccc2c1OC(F)(F)O2 [Fludioxonil],Observed efficacy,Pyricularia oryzae; 0.016 ppm,9
same,Observed efficacy,Pyricularia oryzae; 0.063 ppm,17
same,Observed efficacy,Pyricularia oryzae; 0.25 ppm,26
COC(=O)N(OC)c1ccccc1COc1ccn(-c2ccc(Cl)cc2)n1 [Pyraclostrobin],Observed efficacy,Leptosphaeria nodorum; 0.016 ppm,42
Spinetoram,Observed efficacy,Pyricularia oryzae; 63 ppm,0
CC(C)C1CCC(Cc2ccc(Cl)cc2)C1(O)Cn1cncn1 (stereo not shown) [Ipconazol],Observed efficacy,Pyricularia oryzae; 16 ppm,0
COC(=O)NC(=S)Nc1ccccc1NC(=S)NC(=O)OC [Thiophanate methyl],Observed efficacy,Pyricularia oryzae; 4 ppm,0
CC(O)(Cn1cncn1)c1ccc(Oc2ccc(Cl)cc2)cc1C(F)(F)F (stereo not shown) [Mefentrifluconazol],Observed efficacy,[1]; 0.25 ppm,31
same,Observed efficacy,Botrytis cinerea; 0.016 ppm,0
same,Observed efficacy,Phytophthora infestans; 0.016 ppm,0
same,Observed efficacy,Leptosphaeria nodorum; 0.016 ppm,39
